Reference: article PMC8811955 (Biochemistry, 2022)

Test system: ySB267 (OSR4p-SEC4, Ca.Ste2)
Assay: Peptide concentration-dependent growth of ySB267
Assay type: cell-based, Saccharomyces cerevisiae
Conditions: ySB267, tested concentrations, 20 h

Q: How did the “Peptide concentration above which maximum growth rate was reached” value turn out when GFRLTNFGYFEPG [Ca peptide] was run?
A: > 2.5 nM
